By half-life is commonly meant how long it takes for the measured level to halve.

Data set [1] is described as follows: Stability in presence of alpha-chymotrypsin at 100 mM after 12 hrs. It is filed as ADME. The following applies: 100000 µM.
Data set [2] can be described thus: Stability assessed as hydrolysis half life in presence of alpha-chymotrypsin. It is filed as ADME.
Data set [3] can be described thus: Stability in phosphate buffer assessed as hydrolysis at pH 7.4 after 3 days. The following applies: read-out: Activity. It is filed as physicochemical.

For `O=C(N[C@@H](Cc1ccccc1)C(=O)N[C@H]1CCOP(=O)(N(CCCl)CCCl)N1)OCc1ccccc1` (stereo in doubt; cis), in data set [1], the outcome was Active. Moreover, in data set [2], the t1/2 turned out to be 0.333 h.
`N[C@@H](Cc1ccccc1)C(=O)N[C@@H]1CCOP(=O)(N(CCCl)CCCl)N1` (some centres undefined): the degraded at 72 h in data set [3] is under 10%. Besides, the Activity result in data set [1] is “Not Active”.
For `O=C(N[C@@H](Cc1ccccc1)C(=O)N[C@H]1CCOP(=O)(N(CCCl)CCCl)N1)OCc1ccccc1` (stereo in doubt; trans), in data set [2], the t1/2 was determined as 8.9 h.
Consider `N[C@@H](Cc1ccccc1)C(=O)N[C@H]1CCOP(=O)(N(CCCl)CCCl)N1` (some centres undefined), for which the degraded at 72 h in data set [3] is under 10%. In addition, the Activity entry in data set [1] was “Not Active”.
As to `O=C(N[C@@H](Cc1ccccc1)C(=O)N[C@@H]1CCOP(=O)(N(CCCl)CCCl)N1)OCc1ccccc1` (some centres undefined), in data set [1], the outcome was Active. Besides, the half-life in data set [2] (alpha-chymotrypsin) was over 12 h.
